In ChEMBL document CHEMBL5321218, “Bifunctional degraders of cyclin dependent kinase 9 (CDK9): Probing the relationship between linker length, properties, and selective protein degradation” (Eur J Med Chem, 2023):
The source made the active and inactive calls. The rule behind the calls is not given here.

Legend:
[1] = tested on: MOLM-13; test: Anticancer activity against human MOLM-13 cells assessed as cell growth inhibition measured after 48 hrs by MTS assay; type: functional, cell-based; settings: MOLM-13, 48 h
[2] = molecular target: T1, Protein cereblon/Cyclin-dependent kinase 9 (Homo sapiens, UniProt P50750+Q96SW2); test: Protac activity at CRBN/CDK9 in human MV4-11 cells assessed as CDK9 degradation at 1 uM measured after 6 hrs by Western blot analysis; type: cell-based
Target sequence in this assay (P50750 whole entry, looked up): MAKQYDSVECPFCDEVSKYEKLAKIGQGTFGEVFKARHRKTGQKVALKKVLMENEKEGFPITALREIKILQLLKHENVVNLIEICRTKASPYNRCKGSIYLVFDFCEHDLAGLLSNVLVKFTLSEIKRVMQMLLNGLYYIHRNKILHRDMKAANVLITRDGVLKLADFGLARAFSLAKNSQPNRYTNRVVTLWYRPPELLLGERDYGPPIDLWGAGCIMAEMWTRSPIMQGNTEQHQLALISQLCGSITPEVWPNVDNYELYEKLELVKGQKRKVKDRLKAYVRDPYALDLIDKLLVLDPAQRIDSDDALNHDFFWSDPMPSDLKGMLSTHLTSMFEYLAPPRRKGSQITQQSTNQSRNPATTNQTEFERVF
Target sequence in this assay (Q96SW2 whole entry, looked up): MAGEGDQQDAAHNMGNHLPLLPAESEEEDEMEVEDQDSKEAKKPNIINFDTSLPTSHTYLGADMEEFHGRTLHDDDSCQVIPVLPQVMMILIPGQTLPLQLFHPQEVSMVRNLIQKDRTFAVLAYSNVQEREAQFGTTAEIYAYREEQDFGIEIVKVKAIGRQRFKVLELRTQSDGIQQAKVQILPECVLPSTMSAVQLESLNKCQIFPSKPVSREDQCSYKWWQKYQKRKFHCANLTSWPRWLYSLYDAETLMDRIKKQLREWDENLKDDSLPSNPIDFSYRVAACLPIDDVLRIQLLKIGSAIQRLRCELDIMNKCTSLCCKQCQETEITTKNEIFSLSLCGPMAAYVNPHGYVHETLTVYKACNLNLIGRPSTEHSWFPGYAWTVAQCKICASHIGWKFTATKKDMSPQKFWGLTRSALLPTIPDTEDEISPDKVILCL

[3] = molecular target: T1, Protein cereblon/Cyclin-dependent kinase 9; test: Protac activity at CRBN/CDK9 in human MV4-11 cells assessed as reduction in MCL-1 level at 1 uM measured after 6 hrs by Western blot analysis; type: cell-based
Target sequence in this assay (P50750 whole entry, looked up): as the sequence (P50750 whole entry, looked up) above
Target sequence in this assay (Q96SW2 whole entry, looked up): as the sequence (Q96SW2 whole entry, looked up) above

[4] = molecular target: T1, Protein cereblon/Cyclin-dependent kinase 9; test: Protac activity at CRBN/CDK9 in human MV4-11 cells assessed as CDK9 degradation at 0.01 to 5 uM measured after 6 hrs by Western blot analysis; type: cell-based; settings: dose 0.01-5 µM
Target sequence in this assay (P50750 whole entry, looked up): as the sequence (P50750 whole entry, looked up) above
Target sequence in this assay (Q96SW2 whole entry, looked up): as the sequence (Q96SW2 whole entry, looked up) above

[5] = tested on: MV4-11; test: Anticancer activity against human MV4-11 cells assessed as cell growth inhibition for 6 hrs followed by compound washout measured after 24 hrs by Annexin V/Propidium iodide staining based flow cytometric analysis; type: functional
[6] = molecular target: T1, Protein cereblon/Cyclin-dependent kinase 9; test: Protac activity at CRBN/CDK9 in human MV4-11 cells assessed as reduction in c-Myc level upto 5 uM measured after 6 hrs by Western blot analysis; type: cell-based
Target sequence in this assay (P50750 whole entry, looked up): as the sequence (P50750 whole entry, looked up) above
Target sequence in this assay (Q96SW2 whole entry, looked up): as the sequence (Q96SW2 whole entry, looked up) above

[7] = molecular target: T1, Protein cereblon/Cyclin-dependent kinase 9; test: Protac activity at CRBN/CDK9 isoform 55 in human MOLM-13 cells assessed assessed as protein degradation measured after 6 hrs by Western blot analysis relative to control; type: cell-based
Target sequence in this assay (P50750 whole entry, looked up): as the sequence (P50750 whole entry, looked up) above
Target sequence in this assay (Q96SW2 whole entry, looked up): as the sequence (Q96SW2 whole entry, looked up) above

[8] = molecular target: T1, Protein cereblon/Cyclin-dependent kinase 9; test: Protac activity at CRBN/CDK9 isoform 55 in human MOLM-13 cells assessed assessed as protein degradation measured after 6 hrs by Western blot analysis; type: cell-based
Target sequence in this assay (P50750 whole entry): as the sequence (P50750 whole entry, looked up) above
Target sequence in this assay (Q96SW2 whole entry): as the sequence (Q96SW2 whole entry, looked up) above

[9] = molecular target: T1, Protein cereblon/Cyclin-dependent kinase 9; test: Protac activity at CRBN/CDK9 isoform 42 in human MOLM-13 cells assessed assessed as protein degradation measured after 6 hrs by Western blot analysis; type: cell-based
Target sequence in this assay (P50750 whole entry): as the sequence (P50750 whole entry, looked up) above
Target sequence in this assay (Q96SW2 whole entry): as the sequence (Q96SW2 whole entry, looked up) above

[10] = tested on: MOLM-13; test: Effect on ikaros expression in human MOLM-13 cells at 0.1 uM measured after 6 hrs by Western blot analysis; type: functional, cell-based
[11] = molecular target: T1, Protein cereblon/Cyclin-dependent kinase 9; test: Protac activity at CRBN/CDK9 isoform 42 in human MOLM-13 cells assessed assessed as protein degradation measured after 6 hrs by Western blot analysis relative to control; type: cell-based
Target sequence in this assay (P50750 whole entry, looked up): as the sequence (P50750 whole entry, looked up) above
Target sequence in this assay (Q96SW2 whole entry, looked up): as the sequence (Q96SW2 whole entry, looked up) above

[12] = tested on: MOLM-13; test: Effect on ikaros expression in human MOLM-13 cells upto 5 uM measured after 6 hrs by Western blot analysis; type: functional, cell-based
[13] = tested on: MOLM-13; test: Effect on aiolos expression in human MOLM-13 cells upto 5 uM measured after 6 hrs by Western blot analysis; type: functional, cell-based
[14] = molecular target: T1, Protein cereblon/Cyclin-dependent kinase 9; test: Protac activity at CRBN/CDK9 in human MV4-11 cells assessed as protein degradation at 1 uM treated for 6 hrs followed by compound washout measured after 48 hrs by Western blot analysis; type: cell-based
[15] = tested on: T-lymphocyte; test: Induction of CDK2 degradation in T-lymphocyte (unknown origin); type: cell-based
[16] = molecular target: T1, Protein cereblon/Cyclin-dependent kinase 9; test: Protac activity at CRBN/CDK9 in human MV4-11 cells assessed as protein degradation at 1 uM measured after 6 hrs in presence of […] by Western blot analysis; type: cell-based
[17] = molecular target: T1, Protein cereblon/Cyclin-dependent kinase 9; test: Protac activity at CRBN/CDK9 in human MV4-11 cells assessed as protein degradation at 1 uM treated for 6 hrs followed by compound washout measured after 24 hrs by Western blot analysis; type: cell-based
[18] = tested on: B-lymphocyte; test: Induction of CDK2 degradation in B-lymphocyte (unknown origin); type: cell-based
[19] = molecular target: T1, Protein cereblon/Cyclin-dependent kinase 9; test: Protac activity at CRBN/CDK9 in human MV4-11 cells assessed as protein degradation at 1 uM measured after 6 hrs in presence of bortezomib by Western blot analysis; type: cell-based
[20] = molecular target: Cyclin-dependent kinase 9 (Homo sapiens) (UniProt P50750); test: Induction of CDK9 degradation in human MOLM-13 cells assessed as fold change measured after 6 hrs by proteomics analysis; type: cell-based
Chain of Cyclin-dependent kinase 9 (Homo sapiens) (P50750 whole entry): as the sequence (P50750 whole entry, looked up) above

[21] = molecular target: T1, Protein cereblon/Cyclin-dependent kinase 9; test: Protac activity at CRBN/CDK9 in human MV4-11 cells assessed as protein degradation at 1 uM measured after 6 hrs in presence of pomalidomide by Western blot analysis; type: cell-based
[22] = molecular target: T1, Protein cereblon/Cyclin-dependent kinase 9; test: Protac activity at CRBN/CDK9 in human MV4-11 cells assessed as reduction in MCL-1 level upto 5 uM measured after 6 hrs by Western blot analysis; type: cell-based
[23] = molecular target: T1, Protein cereblon/Cyclin-dependent kinase 9; test: Protac activity at CRBN/CDK9 in human MV4-11 cells assessed as protein degradation at 1 uM measured after 6 hrs in presence of carfilzomib by Western blot analysis; type: cell-based
[24] = molecular target: T1, Protein cereblon/Cyclin-dependent kinase 9; test: Protac activity at CRBN/CDK9 in human MV4-11 cells assessed as CDK9 degradation at 5 uM measured after 6 hrs by Western blot analysis; type: cell-based

Compound: O=C(CCCCCNC(=O)CNc1cccc2c1C(=O)N(C1CCC(=O)NC1=O)C2=O)NCCCCCC(=O)N1CCC(NC(=O)c2n[nH]cc2NC(=O)c2c(Cl)cccc2Cl)CC1 (stereo not given)
- IC50 [1]: 13 µM

Compound: O=C(CCCCCCCCNC(=O)COc1cccc2c1C(=O)N(C1CCC(=O)NC1=O)C2=O)NCCCCCCCCC(=O)N1CCC(NC(=O)c2n[nH]cc2NC(=O)c2c(Cl)cccc2Cl)CC1 (stereo not given)
- IC50 [1]: 0.82 µM

Compound: O=C1CCC(N2C(=O)c3cccc(NCC(=O)N4CCC(NC(=O)c5n[nH]cc5NC(=O)c5c(Cl)cccc5Cl)CC4)c3C2=O)C(=O)N1 (stereo not given)
- Activity [2]: inactive
- Activity [3]: inactive
- IC50 [1]: 774 µM

Compound: O=C(CCCCCCCNC(=O)COc1cccc2c1C(=O)N(C1CCC(=O)NC1=O)C2=O)NCCCCCCCC(=O)N1CCC(NC(=O)c2n[nH]cc2NC(=O)c2c(Cl)cccc2Cl)CC1 (stereo not given)
- IC50 [1]: 2.39 µM

Compound: O=C(CCCCCCCCCCNC(=O)COc1cccc2c1C(=O)N(C1CCC(=O)NC1=O)C2=O)NCCCCCCCCCCC(=O)N1CCC(NC(=O)c2n[nH]cc2NC(=O)c2c(Cl)cccc2Cl)CC1 (stereo not given)
- IC50 [1]: 22.2 µM

Compound: O=C(CCCCNC(=O)CNc1cccc2c1C(=O)N(C1CCC(=O)NC1=O)C2=O)NCCCCC(=O)N1CCC(NC(=O)c2n[nH]cc2NC(=O)c2c(Cl)cccc2Cl)CC1 (stereo not given)
- Activity [4]: inactive
- IC50 [1]: 29.7 µM

Compound: O=C(NC1CCNCC1)c1n[nH]cc1NC(=O)c1c(Cl)cccc1Cl
- EC50 [5]: 1.1 µM

Compound: O=C(CCCCCCCCCNC(=O)CNc1cccc2c1C(=O)N(C1CCC(=O)NC1=O)C2=O)NCCCCCCCCCC(=O)N1CCC(NC(=O)c2n[nH]cc2NC(=O)c2c(Cl)cccc2Cl)CC1 (stereo not given)
- IC50 [1]: 9.43 µM

Compound: O=C(COc1cccc2c1C(=O)N(C1CCC(=O)NC1=O)C2=O)NCCC(=O)N1CCC(NC(=O)c2n[nH]cc2NC(=O)c2c(Cl)cccc2Cl)CC1 (stereo not given)
- Activity [2]: inactive
- IC50 [1]: 39.7 µM

Compound: O=C(COc1cccc2c1C(=O)N(C1CCC(=O)NC1=O)C2=O)NCCCCC(=O)N1CCC(NC(=O)c2n[nH]cc2NC(=O)c2c(Cl)cccc2Cl)CC1 (stereo not given)
- IC50 [1]: 43.6 µM

Compound: O=C(COc1cccc2c1C(=O)N(C1CCC(=O)NC1=O)C2=O)NCCCCCC(=O)N1CCC(NC(=O)c2n[nH]cc2NC(=O)c2c(Cl)cccc2Cl)CC1 (stereo not given)
- IC50 [1]: 2.7 µM

Compound: O=C1CCC(N2C(=O)c3cccc(OCC(=O)N4CCC(NC(=O)c5n[nH]cc5NC(=O)c5c(Cl)cccc5Cl)CC4)c3C2=O)C(=O)N1 (stereo not given)
- Activity [2]: inactive
- IC50 [1]: 6.62 µM

Compound: O=C(COc1cccc2c1C(=O)N(C1CCC(=O)NC1=O)C2=O)NCCCCCCCCCCCC(=O)N1CCC(NC(=O)c2n[nH]cc2NC(=O)c2c(Cl)cccc2Cl)CC1 (stereo not given)
- Activity [2]: Active
- Activity [3]: Active
- IC50 [1]: 0.12 µM

Compound: O=C(CCCCCNC(=O)COc1cccc2c1C(=O)N(C1CCC(=O)NC1=O)C2=O)NCCCCCC(=O)N1CCC(NC(=O)c2n[nH]cc2NC(=O)c2c(Cl)cccc2Cl)CC1 (stereo not given)
- IC50 [1]: 11.7 µM

Compound: O=C(CCCCCCCCCCNC(=O)CNc1cccc2c1C(=O)N(C1CCC(=O)NC1=O)C2=O)NCCCCCCCCCCC(=O)N1CCC(NC(=O)c2n[nH]cc2NC(=O)c2c(Cl)cccc2Cl)CC1 (stereo not given)
- IC50 [1]: 28.4 µM

Compound: O=C(CNc1cccc2c1C(=O)N(C1CCC(=O)NC1=O)C2=O)NCCCCCCCCCCC(=O)N1CCC(NC(=O)c2n[nH]cc2NC(=O)c2c(Cl)cccc2Cl)CC1 (stereo not given)
- Activity [2]: Active
- Activity [6]: Active
- Emax [7]: 91.6%
- EC50 [5]: 0.2 µM
- DC50 [8]: 0.05 µM
- DC50 [9]: 0.03 µM
- IC50 [1]: 42.1 µM
- Activity [10]: inactive
- Emax [11]: 93.1%

Compound: O=C(COc1cccc2c1C(=O)N(C1CCC(=O)NC1=O)C2=O)NCCCCCCCCCCC(=O)N1CCC(NC(=O)c2n[nH]cc2NC(=O)c2c(Cl)cccc2Cl)CC1 (stereo not given)
- Activity [12]: inactive
- Activity [13]: inactive
- Activity [2]: Active
- Activity [14]: inactive
- Activity [15]: Active
- Activity [16]: inactive
- Activity [17]: Active
- Activity [18]: Active
- Activity [3]: Active
- Activity [19]: inactive
- Emax [7]: 91.6%
- fold change (FC) [20]: > 2
- EC50 [5]: 0.4 µM
- DC50 [8]: 0.14 µM
- DC50 [9]: 0.1 µM
- Activity [21]: inactive
- IC50 [1]: 0.04 µM
- Activity [22]: Active
- Activity [23]: inactive
- Emax [11]: 93.1%

Compound: O=C(CCCCCCCNC(=O)CNc1cccc2c1C(=O)N(C1CCC(=O)NC1=O)C2=O)NCCCCCCCC(=O)N1CCC(NC(=O)c2n[nH]cc2NC(=O)c2c(Cl)cccc2Cl)CC1 (stereo not given)
- IC50 [1]: 3.01 µM

Compound: O=C(CCCCCCCCCCCNC(=O)COc1cccc2c1C(=O)N(C1CCC(=O)NC1=O)C2=O)NCCCCCCCCCCCC(=O)N1CCC(NC(=O)c2n[nH]cc2NC(=O)c2c(Cl)cccc2Cl)CC1 (stereo not given)
- IC50 [1]: 83.2 µM

Compound: O=C(CCNC(=O)CNc1cccc2c1C(=O)N(C1CCC(=O)NC1=O)C2=O)NCCC(=O)NCCC(=O)N1CCC(NC(=O)c2n[nH]cc2NC(=O)c2c(Cl)cccc2Cl)CC1 (stereo not given)
- Activity [24]: inactive

Compound: O=C(CCCCCCNC(=O)COc1cccc2c1C(=O)N(C1CCC(=O)NC1=O)C2=O)NCCCCCCC(=O)N1CCC(NC(=O)c2n[nH]cc2NC(=O)c2c(Cl)cccc2Cl)CC1 (stereo not given)
- IC50 [1]: 6.27 µM

Compound: O=C(COc1cccc2c1C(=O)N(C1CCC(=O)NC1=O)C2=O)NCCC(=O)Nc1cccc(C(=O)NCCC(=O)N2CCC(NC(=O)c3n[nH]cc3NC(=O)c3c(Cl)cccc3Cl)CC2)c1 (stereo not given)
- Activity [24]: inactive

Compound: O=C(CCCCCCCCNC(=O)CNc1cccc2c1C(=O)N(C1CCC(=O)NC1=O)C2=O)NCCCCCCCCC(=O)N1CCC(NC(=O)c2n[nH]cc2NC(=O)c2c(Cl)cccc2Cl)CC1 (stereo not given)
- IC50 [1]: 1.4 µM

Compound: O=C(CCCCNC(=O)COc1cccc2c1C(=O)N(C1CCC(=O)NC1=O)C2=O)NCCCCC(=O)N1CCC(NC(=O)c2n[nH]cc2NC(=O)c2c(Cl)cccc2Cl)CC1 (stereo not given)
- Activity [4]: inactive
- IC50 [1]: 47.4 µM

Compound: O=C(CCCCCCNC(=O)CNc1cccc2c1C(=O)N(C1CCC(=O)NC1=O)C2=O)NCCCCCCC(=O)N1CCC(NC(=O)c2n[nH]cc2NC(=O)c2c(Cl)cccc2Cl)CC1 (stereo not given)
- IC50 [1]: 6.96 µM

Compound: O=C(COc1cccc2c1C(=O)N(C1CCC(=O)NC1=O)C2=O)NCCOCCOCCOCC(=O)N1CCC(NC(=O)c2n[nH]cc2NC(=O)c2c(Cl)cccc2Cl)CC1 (stereo not given)
- IC50 [1]: 92.2 µM

Compound: O=C(CCCCCCCCCNC(=O)COc1cccc2c1C(=O)N(C1CCC(=O)NC1=O)C2=O)NCCCCCCCCCC(=O)N1CCC(NC(=O)c2n[nH]cc2NC(=O)c2c(Cl)cccc2Cl)CC1 (stereo not given)
- IC50 [1]: 2.22 µM

Compound: O=C(COc1cccc2c1C(=O)N(C1CCC(=O)NC1=O)C2=O)NCCCCCCCC(=O)N1CCC(NC(=O)c2n[nH]cc2NC(=O)c2c(Cl)cccc2Cl)CC1 (stereo not given)
- Activity [2]: Active
- Activity [3]: Active
- IC50 [1]: 0.21 µM
